# Measurements published in US12052991B2, “Substituted pyridinyloxybenzenes and salts thereof and use thereof as herbicidal agents” (Bayer Aktiengesellschaft, priority 2018, dated 2024).
# How the values were obtained:
# Type in all cases: in vivo
# [1] = tested on: Echinochloa crus-galli (ECHCG); experiment: Herbicidal pre-emergence action, test C (Table C1); details: dosage 1280 g/ha; visual scoring after about 3 weeks; 100% = plants have died, 0% = like control plants
# Outline: (§1)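 Greenhouse pre-emergence test: compound formulations (WP or EC) are applied at 1280 or 320 g/ha to the soil surface over sown weed seeds, with 0.5% additive in 600 L/ha water. After about 3 weeks, percent activity is assessed visually, 100% indicating dead plants.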
# Poa annua (POAAN) [2] = experiment: Herbicidal post-emergence action (Table B3); details: rated visually after about 3 weeks, 100% = plants have died, 0% = like control plants
# Outline: (§2)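 Post-emergence spray, one-leaf stage (2–3 wk after sowing), sandy loam, greenhouse. WP/EC in water + 0.5% additive, 600 L/ha, 1280 or 320 g/ha. Visual % activity vs untreated after ~3 wk (0% = like control, 100% = plants dead).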
# [3] = tested on: Digitaria sanguinalis (DIGSA); experiment: Herbicidal post-emergence action (Table B10); details: visual rating about 3 weeks after treatment, 100% = plants have died, 0% = like control plants
# Outline: as §2
# [4] = tested on: Abutilon theophrasti (ABUTH); experiment: Herbicidal pre-emergence action, test C (Table C5); details: dosage 1280 g/ha; visual scoring after about 3 weeks; 100% = plants have died, 0% = like control plants
# Outline: as §1
# [5] = tested on: Abutilon theophrasti (ABUTH); experiment: Herbicidal post-emergence action (Table B5); details: rated visually after about 3 weeks, 100% = plants have died, 0% = like control plants
# Outline: as §2
# [6] = tested on: Amaranthus retroflexus (AMARE); experiment: Herbicidal pre-emergence action, test C (Table C6); details: visual scoring after about 3 weeks, 100% = plants have died, 0% = like control plants
# Outline: as §1
# Bassia scoparia (KCHSC) = experiment: Herbicidal post-emergence action (Table B11); details: visual rating about 3 weeks after treatment, 100% = plants have died, 0% = like control plants
# Outline: as §2
# Stellaria media (STEME) [7] = experiment: Herbicidal pre-emergence action, test C (Table C8); details: visual scoring after about 3 weeks, 100% = plants have died, 0% = like control plants
# Outline: as §1
# [8] = tested on: Amaranthus retroflexus (AMARE); experiment: Herbicidal post-emergence action (Table B6); details: visual rating about 3 weeks after treatment, 100% = plants have died, 0% = like control plants
# Outline: as §2
# Veronica persica (VERPE) [9] = experiment: Herbicidal post-emergence action (Table B12); details: visual rating about 3 weeks after treatment, 100% = plants have died, 0% = like control plants
# Outline: as §2
# [10] = tested on: Matricaria inodora (MATIN); experiment: Herbicidal post-emergence action (Table B7); details: 1280 g/ha; rated visually after about 3 weeks; 100% = plants have died, 0% = like control plants
# Method: Seeds of mono- and dicotyledonous weed plants were placed in plastic pots in sandy loam soil (doubly sown with in each case one species of mono- or dicotyledonous weed plants per pot), covered with soil and cultivated in a greenhouse under controlled growth conditions. 2 to 3 weeks after sowing, the test plants were treated at the one-leaf stage. The compounds of the invention, formulated in the form of wettable powders (WP) or as emulsion concentrates (EC), were applied onto the green parts of the plants as aqueous suspension or emulsion with addition of 0.5% additive at a water application rate of 600 liters per hectare (converted). After the test plants had been kept in the greenhouse under optimum growth conditions for about 3 weeks, the activity of the preparations was rated visually in comparison to untreated controls. For example, 100% activity=the plants have died, 0% activity=like control plants. Tables B1 to B12 below show the effects of selected compounds of the general formula (I) according to Table 1 on various harmful plants and an application rate corresponding to 1280 or 320 g/ha, which were obtained by the experimental procedure mentioned above.
# [11] = tested on: harmful plants ABUTH, AMARE, ECHCG, LOLRI, MATIN, POAAN, SETVI, STEME, ALOMY, DIGSA, KCHSC and VERPE; experiment: Herbicidal post-emergence action, summary of Tables B1-B12; details: application rate of 1280 or 320 g of active ingredient per hectare; summary in words
# Outline: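 Activity scored by eye roughly 3 weeks post-treatment against untreated plants, from 0% (no effect) to 100% (plants dead). Application rates were 1280 or 320 g/ha, as aqueous WP/EC spray plus 0.5% additive at 600 L/ha, onto one-leaf-stage weeds grown 2–3 weeks in sandy loam.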
# Veronica persica (VERPE) [12] = experiment: Herbicidal pre-emergence action, test C (Table C12); details: visual scoring vs untreated controls
# Outline: as §1
# [13] = tested on: harmful plants ABUTH, AMARE, ECHCG, LOLRI, MATIN, POAAN, SETVI, STEME, ALOMY, DIGSA, KCHSC and VERPE; experiment: Herbicidal pre-emergence action (test C), summary of Tables C1-C12; details: application rate of 1280 or 320 g of active ingredient per hectare; summary in words
# Outline: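 Visual % damage versus untreated plants (0% = like control, 100% = died) was scored after about 3 weeks in the greenhouse. Before emergence, seeds sown in sandy loam got a soil-surface spray of compound as WP or EC plus 0.5% additive, using 600 L/ha water at rates of 1280 or 320 g/ha.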
# Lolium rigidum (LOLRI) = experiment: Herbicidal pre-emergence action, test C (Table C2); details: dosage 1280 g/ha; visual scoring after about 3 weeks; 100% = plants have died, 0% = like control plants
# Outline: as §1
# Setaria viridis (SETVI) = experiment: Herbicidal pre-emergence action, test C (Table C4); details: visual scoring after about 3 weeks, 100% = plants have died, 0% = like control plants
# Outline: as §1
# [14] = tested on: Alopecurus myosuroides (ALOMY); experiment: Herbicidal post-emergence action (Table B9); details: rated visually after about 3 weeks, 100% = plants have died, 0% = like control plants
# Outline: as §2
# [15] = tested on: Digitaria sanguinalis (DIGSA); experiment: Herbicidal pre-emergence action, test C (Table C10); details: visual scoring after about 3 weeks, 100% = plants have died, 0% = like control plants
# Outline: as §1
# [16] = tested on: Alopecurus myosuroides (ALOMY); experiment: Herbicidal pre-emergence action, test C (Table C9); details: visual scoring after about 3 weeks, 100% = plants have died, 0% = like control plants
# Outline: as §1
# Stellaria media (STEME) [17] = experiment: Herbicidal post-emergence action (Table B8); details: visual rating about 3 weeks after treatment, 100% = plants have died, 0% = like control plants
# Outline: as §2
# Poa annua (POAAN) [18] = experiment: Herbicidal pre-emergence action, test C (Table C3); details: visual scoring after about 3 weeks, 100% = plants have died, 0% = like control plants
# Outline: as §1
# [19] = tested on: Matricaria inodora (MATIN); experiment: Herbicidal pre-emergence action, test C (Table C7); details: visual scoring after about 3 weeks, 100% = plants have died, 0% = like control plants
# Outline: as §1
SMILES,Post-emergence action against Poa annua (POAAN) (Poa annua (POAAN) [2]; 320 g/ha),Post-emergence action against Poa annua (POAAN) (Poa annua (POAAN) [2]; 1280 g/ha),Post-emergence action against Digitaria sanguinalis (DIGSA) ([3]; dosage 1280 g/ha),Pre-emergence action against Abutilon theophrasti (ABUTH) [4],Post-emergence action against Abutilon theophrasti (ABUTH) ([5]; 320 g/ha),Post-emergence action against Abutilon theophrasti (ABUTH) ([5]; 1280 g/ha),Pre-emergence action against Amaranthus retroflexus (AMARE) ([6]; dosage 320 g/ha),Pre-emergence action against Amaranthus retroflexus (AMARE) ([6]; dosage 1280 g/ha),Post-emergence action against Bassia scoparia (KCHSC) (Bassia scoparia (KCHSC); dosage 1280 g/ha),Pre-emergence action against Stellaria media (STEME) (Stellaria media (STEME) [7]; dosage 320 g/ha),Pre-emergence action against Stellaria media (STEME) (Stellaria media (STEME) [7]; dosage 1280 g/ha),Post-emergence action against Amaranthus retroflexus (AMARE) ([8]; dosage 320 g/ha),Post-emergence action against Amaranthus retroflexus (AMARE) ([8]; dosage 1280 g/ha),Post-emergence action against Veronica persica (VERPE) (Veronica persica (VERPE) [9]; dosage 320 g/ha),Post-emergence action against Veronica persica (VERPE) (Veronica persica (VERPE) [9]; dosage 1280 g/ha),Post-emergence action against Matricaria inodora (MATIN) [10],herbicidal activity against the harmful plants of Tables B1-B12 in post-emergence treatment [11],Pre-emergence action against Veronica persica (VERPE) (Veronica persica (VERPE) [12]; dosage 1280 g/ha),herbicidal activity against the harmful plants of Tables C1-C12 in pre-emergence treatment [13],Pre-emergence action against Setaria viridis (SETVI) (Setaria viridis (SETVI); dosage 1280 g/ha),further results
CCc1cccc(Oc2ccc(Cl)cn2)c1-c1cc(C(F)F)no1 [Example 1-59],100%,100%,100%,90%,100%,100%,100%,100%,90%,100%,100%,90%,100%,100%,100%,100%,very good herbicidal activity,100%,very good herbicidal activity,100%,Pre-emergence action against Echinochloa crus-galli (ECHCG) [1]: 90%; Post-emergence action against Digitaria sanguinalis (DIGSA) ([3]; dosage 320 g/ha): 100%; Pre-emergence action against Veronica persica (VERPE) (Veronica persica (VERPE) [12]; dosage 320 g/ha): 100%; Pre-emergence action against Lolium rigidum (LOLRI) (Lolium rigidum (LOLRI)): 100%; Pre-emergence action against Setaria viridis (SETVI) (Setaria viridis (SETVI); dosage 320 g/ha): 100%; Post-emergence action against Alopecurus myosuroides (ALOMY) ([14]; 320 g/ha): 100%; Post-emergence action against Alopecurus myosuroides (ALOMY) ([14]; 1280 g/ha): 100%; Pre-emergence action against Digitaria sanguinalis (DIGSA) ([15]; dosage 320 g/ha): 100%; Pre-emergence action against Digitaria sanguinalis (DIGSA) ([15]; dosage 1280 g/ha): 100%; Pre-emergence action against Alopecurus myosuroides (ALOMY) ([16]; dosage 320 g/ha): 100%; Pre-emergence action against Alopecurus myosuroides (ALOMY) ([16]; dosage 1280 g/ha): 100%; Post-emergence action against Stellaria media (STEME) (Stellaria media (STEME) [17]; dosage 320 g/ha): 100%; Post-emergence action against Stellaria media (STEME) (Stellaria media (STEME) [17]; dosage 1280 g/ha): 100%
Cc1cc(C)c(-c2cc(C(F)F)no2)c(Oc2ncc(Cl)cc2F)c1 [Example 1-79],100%,100%,100%,90%,100%,100%,100%,100%,90%,100%,100%,100%,100%,100%,100%,90%,very good herbicidal activity,100%,very good herbicidal activity,100%,Pre-emergence action against Poa annua (POAAN) (Poa annua (POAAN) [18]; dosage 320 g/ha): 90%; Pre-emergence action against Poa annua (POAAN) (Poa annua (POAAN) [18]; dosage 1280 g/ha): 100%; Pre-emergence action against Matricaria inodora (MATIN) ([19]; dosage 320 g/ha): 100%; Pre-emergence action against Matricaria inodora (MATIN) ([19]; dosage 1280 g/ha): 100%; Post-emergence action against Bassia scoparia (KCHSC) (Bassia scoparia (KCHSC); dosage 320 g/ha): 90%; Post-emergence action against Alopecurus myosuroides (ALOMY) ([14]; 1280 g/ha): 90%; Pre-emergence action against Digitaria sanguinalis (DIGSA) ([15]; dosage 1280 g/ha): 100%; Pre-emergence action against Alopecurus myosuroides (ALOMY) ([16]; dosage 1280 g/ha): 90%; Post-emergence action against Stellaria media (STEME) (Stellaria media (STEME) [17]; dosage 320 g/ha): 100%; Post-emergence action against Stellaria media (STEME) (Stellaria media (STEME) [17]; dosage 1280 g/ha): 100%
